One may read the IC50 as the concentration that inhibits the measured activity by half.

Results on 31 compounds are retold here after ChEMBL document CHEMBL3352497, “Design and optimization of novel 4-(2-fluorophenoxy)quinoline derivatives bearing a hydrazone moiety as c-Met kinase inhibitors” (Eur J Med Chem, 2014).

One assay has as its system HT-29. Put plainly: cells. As to conditions: Homo sapiens, HT-29, 72 h.
A short description of assay [1]: Antiproliferative activity against human MKN45 cells assessed as inhibition of cell growth after 72 hrs by MTT assay. Type of assay: functional, cell-based. As to conditions: MKN-45, 72 h. On the technique in general: Formazan colour is commonly taken as a measure of viable cells.
In another assay the test system is A549. In words: cells. As to conditions: Homo sapiens, A549, 72 h.
A further assay is described as follows: cells. As to conditions: Homo sapiens, NCI-H460, 72 h.
The nature of assay [2]: Antiproliferative activity against human U87MG cells assessed as inhibition of cell growth after 72 hrs by MTT assay. Type of assay: functional, cell-based, U-87MG ATCC. Conditions: U-87 MG.

Description for A549: Antiproliferative activity against human A549 cells assessed as inhibition of cell growth after 72 hrs by MTT assay
Description for HT-29: Antiproliferative activity against human HT-29 cells assessed as inhibition of cell growth after 72 hrs by MTT assay

As for `COc1cc2c(Oc3ccc(CC(=O)N/N=C/c4ccccc4)cc3F)ccnc2cc1OCCCN1CCOCC1`, the IC50 was 410 nM with HT-29; 820 nM in assay [1]; 230 nM with A549; 110 nM in “cells”; 480 nM in assay [2].

`COc1cc2c(Oc3ccc(CC(=O)N/N=C(/C)c4ccccc4)cc3F)ccnc2cc1OCCCN1CCOCC1`: the IC50 with HT-29 was found to be 540 nM; in assay [1] it was 970 nM; in the assay on A549, 350 nM; in “cells” it was 190 nM; in assay [2], 610 nM.

Consider `COc1cc2c(Oc3ccc(CC(=O)N/N=C/c4ccccc4)cc3F)ccnc2cc1OCCCN1CCCCC1`, for which the IC50 in the assay on HT-29 turned out to be 800 nM; in assay [1] it was 1580 nM; in the assay with A549, 400 nM; in the assay “cells” it was 220 nM; in assay [2], 1020 nM.

As for `COc1cc2c(Oc3ccc(CC(=O)N/N=C(/C)c4ccccc4)cc3F)ccnc2cc1OCCCN1CCCCC1`, the IC50 in the assay on HT-29 came to 970 nM; in assay [1], 1990 nM; in the assay on A549 it was 520 nM; in “cells” it was 340 nM; in assay [2], 1380 nM.

As to `COc1cc2c(Oc3ccc(CC(=O)N/N=C/c4ccccc4)cc3F)ccnc2cc1OCCCN1CCCC1`, the IC50 in the assay on HT-29 is 340 nM; in assay [1], 720 nM; with A549, 140 nM; in the assay “cells” it was 83 nM; in assay [2] it was 420 nM.

For the compound `COc1cc2c(Oc3ccc(CC(=O)N/N=C(/C)c4ccccc4)cc3F)ccnc2cc1OCCCN1CCCC1`, the IC50 in the assay on HT-29 is 440 nM; in assay [1] it was 760 nM; with A549, 280 nM; in “cells” it was 99 nM; in assay [2], 590 nM.

For the compound `COc1cc2c(Oc3ccc(CC(=O)N/N=C/c4ccccc4)cc3F)ccnc2cc1OCCCN1CCC(C)CC1`, the IC50 with HT-29 is 810 nM; in assay [1] it was 2120 nM; in the assay with A549, 340 nM; in the assay “cells”, 170 nM; in assay [2], 970 nM.

For `COc1cc2c(Oc3ccc(CC(=O)N/N=C(/C)c4ccccc4)cc3F)ccnc2cc1OCCCN1CCC(C)CC1`, the IC50 amounted to 950 nM in the assay with HT-29; 2690 nM in assay [1]; 390 nM with A549; 200 nM in “cells”; 1480 nM in assay [2].

As for `COc1cc2c(Oc3ccc(CC(=O)N/N=C/c4ccc(O)cc4)cc3F)ccnc2cc1OCCCN1CCOCC1`, the IC50 in the assay on HT-29 amounted to 1300 nM; in assay [1] it was 3220 nM; in the assay with A549 it was 560 nM; in “cells”, 310 nM; in assay [2] it was 1700 nM.

As to `COc1ccc(/C=N/NC(=O)Cc2ccc(Oc3ccnc4cc(OCCCN5CCOCC5)c(OC)cc34)c(F)c2)cc1`, the IC50 in the assay on HT-29 worked out at 1720 nM; in assay [1] it was 3910 nM; with A549 it was 960 nM; in the assay “cells”, 450 nM; in assay [2], 2650 nM.

Regarding `COc1cc(/C=N/NC(=O)Cc2ccc(Oc3ccnc4cc(OCCCN5CCOCC5)c(OC)cc34)c(F)c2)ccc1O`, the IC50 in the assay on HT-29 was found to be 3940 nM; in assay [1], 11200 nM; in the assay with A549, 2980 nM; in the assay “cells” it was 1170 nM; in assay [2], 5860 nM.

As for `COc1cc2c(Oc3ccc(CC(=O)N/N=C/c4ccc(O)c(Br)c4)cc3F)ccnc2cc1OCCCN1CCOCC1`, the values for the IC50 with HT-29, with A549 and in the assay “cells” were 3670 nM, 2540 nM and 1080 nM, respectively.

Turning to `COc1cc2c(Oc3ccc(CC(=O)N/N=C/c4ccc(S(C)(=O)=O)cc4)cc3F)ccnc2cc1OCCCN1CCOCC1`, the IC50 in the assay with HT-29 was 480 nM; in assay [1], 1140 nM; in the assay with A549, 250 nM; in “cells”, 100 nM; in assay [2] it was 680 nM.

As for `COc1cc2c(Oc3ccc(CC(=O)N/N=C/c4ccc(OC(F)(F)F)cc4)cc3F)ccnc2cc1OCCCN1CCOCC1`, the IC50 was 380 nM in the assay on HT-29; 690 nM in assay [1]; 200 nM with A549; 81 nM in “cells”; 450 nM in assay [2].

Regarding `COc1cc2c(Oc3ccc(CC(=O)N/N=C/c4ccc(C(F)(F)F)cc4)cc3F)ccnc2cc1OCCCN1CCOCC1`, the IC50 with HT-29 turned out to be 220 nM; in assay [1] it was 490 nM; in the assay with A549, 110 nM; in “cells”, 55 nM; in assay [2], 300 nM.

`COc1cc2c(Oc3ccc(CC(=O)N/N=C/C(C)C)cc3F)ccnc2cc1OCCCN1CCOCC1`: the IC50 stood at 25200 nM in the assay with HT-29, 23000 nM in the assay on A549 and 7140 nM in the assay “cells”.

On to `COc1cc2c(Oc3ccc(CC(=O)N/N=C/c4ccc(F)cc4)cc3F)ccnc2cc1OCCCN1CCCC1`, for which the IC50 in the assay on HT-29 came out at 260 nM; in assay [1] it was 560 nM; in the assay on A549, 140 nM; in “cells”, 67 nM; in assay [2], 420 nM.

In the case of `COc1cc2c(Oc3ccc(CC(=O)N/N=C/c4ccc(Cl)cc4)cc3F)ccnc2cc1OCCCN1CCCC1`, the IC50 in the assay with HT-29 amounted to 280 nM; in assay [1] it was 620 nM; in the assay on A549, 170 nM; in “cells” it was 75 nM; in assay [2] it was 400 nM.

In the case of `COc1cc2c(Oc3ccc(CC(=O)N/N=C/c4ccccc4F)cc3F)ccnc2cc1OCCCN1CCCC1`, the IC50 in the assay on HT-29 is 480 nM; in assay [1], 980 nM; in the assay on A549, 320 nM; in the assay “cells”, 82 nM; in assay [2], 810 nM.

Turning to `COc1cc2c(Oc3ccc(CC(=O)N/N=C/c4ccc(OC(F)(F)F)cc4)cc3F)ccnc2cc1OCCCN1CCCC1`, the IC50 in the assay on HT-29 amounted to 200 nM; in assay [1], 460 nM; in the assay on A549 it was 130 nM; in the assay “cells” it was 58 nM; in assay [2] it was 330 nM.

Take `COc1cc2c(Oc3ccc(CC(=O)N/N=C/c4ccco4)cc3F)ccnc2cc1OCCCN1CCOCC1`: the IC50 in the assay with HT-29 was 2780 nM; in the assay with A549, 3190 nM; in the assay “cells”, 880 nM.

In the case of `COc1cc2c(Oc3ccc(CC(=O)N/N=C/c4ccc[nH]4)cc3F)ccnc2cc1OCCCN1CCOCC1`, the IC50 was determined as 2360 nM in the assay with HT-29, 1220 nM in the assay on A549 and 760 nM in the assay “cells”.

For the compound `COc1cc2c(Oc3ccc(CC(=O)N/N=C/c4cccs4)cc3F)ccnc2cc1OCCCN1CCOCC1`, the IC50 in the assay on HT-29 was 960 nM; in assay [1] it was 1820 nM; in the assay with A549, 390 nM; in “cells”, 280 nM; in assay [2], 1150 nM.

With `COc1cc2c(Oc3ccc(CC(=O)N/N=C/c4ccncc4)cc3F)ccnc2cc1OCCCN1CCOCC1`, the IC50 in the assay on HT-29 came out at 320 nM; in assay [1], 790 nM; in the assay on A549 it was 160 nM; in “cells”, 94 nM; in assay [2], 500 nM.

On to `COc1cc2c(Oc3ccc(CC(=O)N/N=C(/C)c4ccc(F)cc4)cc3F)ccnc2cc1OCCCN1CCCC1`, for which the IC50 was 280 nM with HT-29; 580 nM in assay [1]; 170 nM in the assay with A549; 72 nM in “cells”; 350 nM in assay [2].

As for `COc1cc2c(Oc3ccc(CC(=O)N/N=C(/C)c4ccc(Cl)cc4)cc3F)ccnc2cc1OCCCN1CCCC1`, the IC50 is 290 nM in the assay with HT-29, 190 nM in the assay with A549 and 83 nM in the assay “cells”.

Turning to `COc1cc2c(Oc3ccc(CC(=O)N/N=C(/C)c4ccc(O)cc4)cc3F)ccnc2cc1OCCCN1CCCC1`, the IC50 in the assay on HT-29 worked out at 780 nM; in assay [1] it was 1680 nM; with A549, 410 nM; in the assay “cells”, 180 nM; in assay [2] it was 1160 nM.

For the compound `COc1cc2c(Oc3ccc(CC(=O)N/N=C(/C)c4ccc(C(F)(F)F)cc4)cc3F)ccnc2cc1OCCCN1CCCC1`, the IC50 is 190 nM with HT-29; 420 nM in assay [1]; 96 nM with A549; 46 nM in “cells”; 370 nM in assay [2].

`COc1cc2c(Oc3ccc(CC(=O)N/N=C(/C)c4ccc(C(F)(F)F)cc4)cc3F)ccnc2cc1OCCCN1CCOCC1`: the IC50 with HT-29 came out at 260 nM; in assay [1], 590 nM; in the assay with A549, 170 nM; in “cells” it was 71 nM; in assay [2], 390 nM.

On to `COc1cc2c(Oc3ccc(CC(=O)N/N=C(/C)c4ccc(C(F)(F)F)cc4)cc3F)ccnc2cc1OCCCN1CCCCC1`, for which the IC50 in the assay on HT-29 was determined as 450 nM; in assay [1], 940 nM; with A549, 290 nM; in the assay “cells” it was 130 nM; in assay [2], 590 nM.

On to `COc1cc2c(Oc3ccc(CC(=O)N/N=C(/C)c4ccc(C(F)(F)F)cc4)cc3F)ccnc2cc1OCCCN1CCC(C)CC1`, for which the IC50 was found to be 360 nM in the assay on HT-29; 840 nM in assay [1]; 220 nM in the assay on A549; 96 nM in “cells”; 510 nM in assay [2].
